Active and inactive are the calls of the source. The rule behind the calls is not given here.
Experiments:
[1] = molecular target: Metabotropic glutamate receptor 3 (Homo sapiens) (UniProt Q14832); experiment: Binding affinity to human mGlu3 receptor expressed in HEK293 cells assessed as calcium mobilization by [35S]GTPgamma binding assay; type: functional, cell-based
[2] = Oral bioavailability in Sprague-Dawley rat at 10 mg/kg; type: ADME, organism-based; conditions: in vivo
[3] = Tmax in Sprague-Dawley rat at 2.5 mg/kg, iv; type: ADME, organism-based; design: dose 2.5 mg/kg, route intravenous; conditions: in vivo
[4] = Apparent permeability from basolateral to apical side in human Caco2 cells; type: ADME, cell-based; conditions: Caco-2
[5] = molecular target: Metabotropic glutamate receptor 5 (Homo sapiens) (UniProt P41594); experiment: Binding affinity to human mGlu5 receptor expressed in HEK293 cells assessed as calcium mobilization by [35S]GTPgamma binding assay; type: functional, cell-based
Metabotropic glutamate receptor 5 (Homo sapiens), sequence (P41594 21-1212 limits assumed): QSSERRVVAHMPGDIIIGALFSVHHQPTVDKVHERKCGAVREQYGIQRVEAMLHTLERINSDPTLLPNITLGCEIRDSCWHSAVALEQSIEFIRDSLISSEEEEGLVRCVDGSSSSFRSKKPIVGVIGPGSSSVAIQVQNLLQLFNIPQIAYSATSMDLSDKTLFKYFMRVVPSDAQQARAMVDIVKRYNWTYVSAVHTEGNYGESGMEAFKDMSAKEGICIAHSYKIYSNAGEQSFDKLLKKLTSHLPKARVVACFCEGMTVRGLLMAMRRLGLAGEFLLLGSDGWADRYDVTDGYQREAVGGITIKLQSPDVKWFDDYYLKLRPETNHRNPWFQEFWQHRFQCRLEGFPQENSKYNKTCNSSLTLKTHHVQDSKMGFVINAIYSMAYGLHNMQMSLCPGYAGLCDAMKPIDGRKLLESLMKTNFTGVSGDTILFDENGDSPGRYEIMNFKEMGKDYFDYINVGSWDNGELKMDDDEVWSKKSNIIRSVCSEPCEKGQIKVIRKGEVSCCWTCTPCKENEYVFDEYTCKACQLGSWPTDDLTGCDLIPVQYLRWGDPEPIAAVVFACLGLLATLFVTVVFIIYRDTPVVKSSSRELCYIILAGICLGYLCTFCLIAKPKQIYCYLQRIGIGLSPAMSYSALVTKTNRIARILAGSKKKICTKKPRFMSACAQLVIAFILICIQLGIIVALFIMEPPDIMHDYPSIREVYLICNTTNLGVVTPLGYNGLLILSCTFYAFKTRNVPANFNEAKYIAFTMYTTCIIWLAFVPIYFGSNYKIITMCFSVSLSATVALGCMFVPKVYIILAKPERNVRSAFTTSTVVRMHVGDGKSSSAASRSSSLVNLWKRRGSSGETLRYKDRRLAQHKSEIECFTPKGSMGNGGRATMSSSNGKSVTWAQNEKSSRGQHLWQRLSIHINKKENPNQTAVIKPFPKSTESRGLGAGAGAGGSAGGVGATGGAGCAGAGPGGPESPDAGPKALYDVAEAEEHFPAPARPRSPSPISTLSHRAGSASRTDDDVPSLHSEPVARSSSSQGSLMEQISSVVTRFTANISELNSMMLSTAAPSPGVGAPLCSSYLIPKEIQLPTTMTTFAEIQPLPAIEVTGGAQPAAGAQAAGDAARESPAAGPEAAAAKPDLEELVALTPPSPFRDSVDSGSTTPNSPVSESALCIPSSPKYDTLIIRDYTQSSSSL

[6] = Elimination half life in Sprague-Dawley rat at 2.5 mg/kg, iv; type: ADME, organism-based; design: dose 2.5 mg/kg, route intravenous; conditions: in vivo, read-out: beta t1/2 (converted)
[7] = test system: Rattus norvegicus; experiment: Positive allosteric modulation of mGlu2 receptor in Sprague-Dawley rat sleep-wake EEG paradigm model assessed as effect on deep sleep stage at 3 mg/kg, po after 4 hrs by electroencephalogram analysis; type: functional, organism-based; design: dose 3 mg/kg
[8] = Cmax in dog at 2.5 mg/kg, po; type: ADME, organism-based, Canis lupus familiaris; design: dose 2.5 mg/kg, route oral; conditions: in vivo
[9] = molecular target: Metabotropic glutamate receptor 4 (Homo sapiens) (UniProt Q14833); experiment: Binding affinity to human mGlu4 receptor expressed in […] L929 cells assessed as calcium mobilization by [35S]GTPgamma binding assay; type: functional, cell-based
Metabotropic glutamate receptor 4 (Homo sapiens), sequence (Q14833 whole entry): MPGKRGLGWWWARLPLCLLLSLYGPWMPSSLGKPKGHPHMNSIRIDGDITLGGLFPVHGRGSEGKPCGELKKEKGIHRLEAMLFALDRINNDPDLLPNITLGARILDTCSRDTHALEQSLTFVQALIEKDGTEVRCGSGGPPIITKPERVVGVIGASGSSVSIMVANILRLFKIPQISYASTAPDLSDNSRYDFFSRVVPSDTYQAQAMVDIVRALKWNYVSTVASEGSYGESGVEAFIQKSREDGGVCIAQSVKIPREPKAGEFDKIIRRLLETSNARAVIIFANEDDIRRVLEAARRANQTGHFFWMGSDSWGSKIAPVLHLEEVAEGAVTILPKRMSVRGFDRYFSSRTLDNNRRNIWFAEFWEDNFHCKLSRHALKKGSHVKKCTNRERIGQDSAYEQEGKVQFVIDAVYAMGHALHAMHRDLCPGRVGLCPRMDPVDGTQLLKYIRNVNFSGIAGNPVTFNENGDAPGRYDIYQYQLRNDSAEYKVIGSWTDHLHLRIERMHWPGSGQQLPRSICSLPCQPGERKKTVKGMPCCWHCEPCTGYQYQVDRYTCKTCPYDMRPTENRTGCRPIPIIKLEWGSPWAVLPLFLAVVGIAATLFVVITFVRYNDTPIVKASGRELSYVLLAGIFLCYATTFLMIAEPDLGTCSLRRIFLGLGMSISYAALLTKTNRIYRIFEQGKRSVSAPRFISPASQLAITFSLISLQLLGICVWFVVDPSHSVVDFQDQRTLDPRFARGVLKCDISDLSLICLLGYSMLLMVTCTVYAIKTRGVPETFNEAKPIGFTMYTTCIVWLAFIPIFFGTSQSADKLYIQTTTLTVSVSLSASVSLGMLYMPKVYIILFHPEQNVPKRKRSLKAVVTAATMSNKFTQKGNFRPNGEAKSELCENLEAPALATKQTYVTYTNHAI

[10] = test system: Rattus norvegicus; experiment: Positive allosteric modulation of mGlu2 receptor in Sprague-Dawley rat sleep-wake EEG paradigm model assessed as reduction in REM sleep at 3 mg/kg, po after 4 hrs by electroencephalogram analysis; type: functional, organism-based; design: dose 3 mg/kg
[11] = AUC (0 to infinity) in dog at 2.5 mg/kg, po; type: ADME, organism-based, Canis lupus familiaris; design: time infinity, dose 2.5 mg/kg, route oral; conditions: plasma
[12] = Clearance in dog at 1 mg/kg, iv; type: ADME, organism-based, Canis lupus familiaris; design: dose 1 mg/kg, route intravenous; conditions: in vivo
[13] = Metabolic stability in rat liver microsomes assessed as compound metabolized at 5 uM after 15 mins by MS/MS analysis in presence of NADPH; type: ADME; conditions: read-out: Drug metabolism
[14] = Metabolic stability in human liver microsomes assessed as compound metabolized at 5 uM after 15 mins by MS/MS analysis in presence of NADPH; type: ADME; conditions: read-out: Drug metabolism
[15] = Lipophilicity, log P of the compound at pH 6.8; type: physicochemical; conditions: buffer
[16] = Volume of distribution at steady state in dog at 1 mg/kg, iv; type: ADME, organism-based, Canis lupus familiaris; design: dose 1 mg/kg, route intravenous; conditions: in vivo, read-out: Vdss
[17] = Oral bioavailability in dog at 2.5 mg/kg; type: ADME, organism-based, Canis lupus familiaris; conditions: in vivo
[18] = test system: Rattus norvegicus; experiment: Positive allosteric modulation of mGlu2 receptor in po dosed Sprague-Dawley rat assessed effect on sleep-wake EEG paradigm after 20 hrs by electroencephalogram analysis; type: functional
[19] = Tmax in dog at 1 mg/kg, iv; type: ADME, organism-based, Canis lupus familiaris; design: dose 1 mg/kg, route intravenous; conditions: in vivo
[20] = AUC (0 to infinity) in Sprague-Dawley rat at 10 mg/kg, po; type: ADME, organism-based; design: time infinity, dose 10 mg/kg, route oral; conditions: plasma
[21] = test system: Rattus norvegicus; experiment: Positive allosteric modulation of mGlu2 receptor in Sprague-Dawley rat sleep-wake EEG paradigm model assessed as effect on light sleep stage at 3 mg/kg, po after 4 hrs by electroencephalogram analysis; type: functional, organism-based; design: dose 3 mg/kg
[22] = Dissociation constant, pKa of the compound; type: physicochemical
[23] = test system: Rattus norvegicus; experiment: Positive allosteric modulation of mGlu2 receptor in Sprague-Dawley rat sleep-wake EEG paradigm model assessed as effect on passive wake stage at 3 mg/kg, po after 4 hrs by electroencephalogram analysis; type: functional, organism-based; design: dose 3 mg/kg
[24] = molecular target: Metabotropic glutamate receptor 6 (Rattus norvegicus) (UniProt P35349); experiment: Binding affinity to rat mGlu6 receptor expressed in CHO cells assessed as calcium mobilization by [35S]GTPgamma binding assay; type: functional, cell-based
Metabotropic glutamate receptor 6 (Rattus norvegicus), sequence (P35349 whole entry): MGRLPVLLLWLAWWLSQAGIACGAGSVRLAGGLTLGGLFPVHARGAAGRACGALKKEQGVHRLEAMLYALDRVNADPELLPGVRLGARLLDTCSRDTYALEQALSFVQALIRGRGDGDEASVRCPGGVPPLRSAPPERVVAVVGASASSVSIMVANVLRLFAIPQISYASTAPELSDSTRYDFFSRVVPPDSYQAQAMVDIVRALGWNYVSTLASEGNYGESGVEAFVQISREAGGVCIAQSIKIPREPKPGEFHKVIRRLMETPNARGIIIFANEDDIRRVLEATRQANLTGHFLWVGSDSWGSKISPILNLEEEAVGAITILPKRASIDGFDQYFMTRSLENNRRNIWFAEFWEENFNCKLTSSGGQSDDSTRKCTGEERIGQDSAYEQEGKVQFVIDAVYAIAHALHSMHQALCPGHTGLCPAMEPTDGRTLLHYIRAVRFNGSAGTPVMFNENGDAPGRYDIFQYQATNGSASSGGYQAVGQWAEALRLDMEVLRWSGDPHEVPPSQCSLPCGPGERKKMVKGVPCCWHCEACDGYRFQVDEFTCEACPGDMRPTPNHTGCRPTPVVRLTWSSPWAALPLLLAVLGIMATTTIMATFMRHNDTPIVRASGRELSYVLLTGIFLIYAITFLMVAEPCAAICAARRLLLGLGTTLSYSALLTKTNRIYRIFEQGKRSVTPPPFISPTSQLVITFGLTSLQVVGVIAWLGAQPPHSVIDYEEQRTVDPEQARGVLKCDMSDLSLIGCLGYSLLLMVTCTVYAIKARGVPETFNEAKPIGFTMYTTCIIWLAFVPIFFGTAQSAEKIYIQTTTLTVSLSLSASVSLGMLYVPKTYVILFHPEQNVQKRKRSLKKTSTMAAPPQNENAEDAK

[25] = test system: Rattus norvegicus; experiment: Positive allosteric modulation of mGlu2 receptor in po dosed Sprague-Dawley rat assessed free plasma drug level causing effect on sleep-wake EEG paradigm after 20 hrs by electroencephalogram analysis; type: functional
[26] = molecular target: Metabotropic glutamate receptor 1 (Homo sapiens) (UniProt Q13255); experiment: Binding affinity to human mGlu1 receptor expressed in HEK293 cells assessed as calcium mobilization by [35S]GTPgamma binding assay; type: functional, cell-based
Metabotropic glutamate receptor 1 (Homo sapiens), sequence (Q13255 19-1194 limits assumed): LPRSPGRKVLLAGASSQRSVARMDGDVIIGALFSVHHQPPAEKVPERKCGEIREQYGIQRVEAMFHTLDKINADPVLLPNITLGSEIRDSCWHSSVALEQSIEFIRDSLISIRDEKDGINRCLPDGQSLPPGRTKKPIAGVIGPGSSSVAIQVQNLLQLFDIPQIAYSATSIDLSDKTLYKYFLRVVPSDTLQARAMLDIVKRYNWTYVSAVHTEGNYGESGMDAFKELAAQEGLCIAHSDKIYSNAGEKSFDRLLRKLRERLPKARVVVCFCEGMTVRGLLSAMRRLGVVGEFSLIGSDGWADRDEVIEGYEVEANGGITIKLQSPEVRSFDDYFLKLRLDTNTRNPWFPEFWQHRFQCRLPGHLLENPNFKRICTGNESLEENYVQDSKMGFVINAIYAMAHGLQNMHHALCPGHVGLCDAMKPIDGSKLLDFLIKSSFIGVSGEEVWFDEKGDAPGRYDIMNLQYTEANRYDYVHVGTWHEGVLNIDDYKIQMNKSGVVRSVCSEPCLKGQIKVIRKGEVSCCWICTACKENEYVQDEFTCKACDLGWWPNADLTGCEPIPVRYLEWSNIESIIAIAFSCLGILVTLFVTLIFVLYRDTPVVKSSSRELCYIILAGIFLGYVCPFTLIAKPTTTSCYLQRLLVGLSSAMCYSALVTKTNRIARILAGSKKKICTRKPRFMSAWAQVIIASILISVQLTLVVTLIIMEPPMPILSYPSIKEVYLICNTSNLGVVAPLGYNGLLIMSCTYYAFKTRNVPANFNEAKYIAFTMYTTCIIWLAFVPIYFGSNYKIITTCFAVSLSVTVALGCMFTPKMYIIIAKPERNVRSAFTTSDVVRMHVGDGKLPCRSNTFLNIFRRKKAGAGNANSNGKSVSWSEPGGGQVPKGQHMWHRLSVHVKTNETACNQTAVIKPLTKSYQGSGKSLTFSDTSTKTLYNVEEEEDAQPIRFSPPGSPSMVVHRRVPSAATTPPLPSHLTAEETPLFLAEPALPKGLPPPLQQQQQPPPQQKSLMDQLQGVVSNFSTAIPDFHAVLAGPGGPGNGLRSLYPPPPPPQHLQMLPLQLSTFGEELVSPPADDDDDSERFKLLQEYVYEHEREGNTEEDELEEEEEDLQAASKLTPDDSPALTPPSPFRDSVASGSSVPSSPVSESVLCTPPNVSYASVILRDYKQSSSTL

[27] = Apparent permeability from apical to basolateral side in human Caco2 cells; type: ADME, cell-based; conditions: Caco-2
[28] = Volume of distribution at steady state in Sprague-Dawley rat at 2.5 mg/kg, iv; type: ADME, organism-based; design: dose 2.5 mg/kg, route intravenous; conditions: in vivo, read-out: Vdss
[29] = test system: Rattus norvegicus; experiment: Positive allosteric modulation of mGlu2 receptor in Sprague-Dawley rat sleep-wake EEG paradigm model assessed as effect on active wake stage at 3 mg/kg, po after 4 hrs by electroencephalogram analysis; type: functional, organism-based; design: dose 3 mg/kg
[30] = Clearance in Sprague-Dawley rat at 2.5 mg/kg, iv; type: ADME, organism-based; design: dose 2.5 mg/kg, route intravenous; conditions: in vivo
[31] = test system: Rattus norvegicus; experiment: Positive allosteric modulation of mGlu2 receptor in Sprague-Dawley rat sleep-wake EEG paradigm model assessed as effect on intermediate state at 3 mg/kg, po after 4 hrs by electroencephalogram analysis; type: functional, organism-based; design: dose 3 mg/kg
[32] = Cmax in Sprague-Dawley rat at 10 mg/kg, po; type: ADME, organism-based; design: dose 10 mg/kg, route oral; conditions: in vivo
[33] = Ratio of drug level in brain to plasma in Swiss mouse at 10 mg/kg, sc after 1 hr; type: ADME, organism-based; design: dose 10 mg/kg, route subcutaneous; conditions: brain and plasma, read-out: BPR
[34] = Elimination half life in dog at 1 mg/kg, iv; type: ADME, organism-based, Canis lupus familiaris; design: dose 1 mg/kg, route intravenous; conditions: in vivo, read-out: beta t1/2 (converted)

Metabotropic glutamate receptor 3 (Homo sapiens), sequence (Q14832 23-879 limits assumed): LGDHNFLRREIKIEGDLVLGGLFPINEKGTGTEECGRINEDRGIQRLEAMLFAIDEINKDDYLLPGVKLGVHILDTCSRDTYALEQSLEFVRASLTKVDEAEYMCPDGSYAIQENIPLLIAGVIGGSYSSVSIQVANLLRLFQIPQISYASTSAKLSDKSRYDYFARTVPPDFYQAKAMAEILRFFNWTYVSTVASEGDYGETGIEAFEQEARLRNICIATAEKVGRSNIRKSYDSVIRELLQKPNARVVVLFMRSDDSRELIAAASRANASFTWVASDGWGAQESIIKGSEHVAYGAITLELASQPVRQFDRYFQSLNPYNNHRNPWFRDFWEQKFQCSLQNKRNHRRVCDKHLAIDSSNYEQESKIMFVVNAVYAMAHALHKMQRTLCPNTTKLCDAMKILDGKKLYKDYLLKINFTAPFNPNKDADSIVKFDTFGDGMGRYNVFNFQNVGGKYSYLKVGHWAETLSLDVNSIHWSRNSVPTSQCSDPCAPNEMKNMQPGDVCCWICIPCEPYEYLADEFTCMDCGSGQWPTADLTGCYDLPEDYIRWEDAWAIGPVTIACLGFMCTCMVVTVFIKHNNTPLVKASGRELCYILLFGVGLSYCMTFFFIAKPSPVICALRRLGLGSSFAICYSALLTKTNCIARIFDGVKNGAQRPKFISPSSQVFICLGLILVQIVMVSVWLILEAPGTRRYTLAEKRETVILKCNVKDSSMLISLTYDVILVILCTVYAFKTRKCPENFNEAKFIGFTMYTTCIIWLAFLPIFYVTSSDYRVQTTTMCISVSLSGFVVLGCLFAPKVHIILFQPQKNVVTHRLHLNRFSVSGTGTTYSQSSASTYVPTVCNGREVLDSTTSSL

Structure (SMILES): CCCCn1ccc(N2CCC(c3ccccc3)CC2)c(Cl)c1=O [JNJ-40411813]
- Activity [1]: inactive
- bioavailability [2]: 31%
- Tmax [3]: 0.5 h
- Papp B→A [4]: 6 ×10⁻⁶ cm/s
- Activity [5]: inactive
- half-life [6]: 2.3 h
- Activity [7]: inactive
- Cmax [8]: 373 ng/mL
- Activity [9]: inactive
- Activity [10]: Active
- AUC(0-inf) [11]: 743 ng·h/mL
- clearance [12]: 23 mL/min/kg
- metabolised at 0.25 h, 5 µM [13]: 53%
- metabolised at 0.25 h, 5 µM [14]: 23%
- logD [15]: 4.6
- Vd [16]: 1.8 L/kg
- bioavailability [17]: 20%
- MEC [18]: 281 ng/mL
- minimal effective dose ([18]; Rattus norvegicus, Sprague-Dawley, po, 20 h, read-out: MED): 3 mg/kg
- Tmax [19]: 0.5 h
- AUC(0-inf) [20]: 2250 ng·h/mL
- Activity [21]: inactive
- pKa [22]: < 2
- Activity [23]: inactive
- Activity [24]: inactive
- fMEC [25]: 0.9 ng/mL
- Activity [26]: inactive
- Papp A→B [27]: 12 ×10⁻⁶ cm/s
- Vd [28]: 2.3 L/kg
- Activity [29]: inactive
- clearance [30]: 23 mL/min/kg
- Activity [31]: inactive
- Cmax [32]: 938 ng/mL
- Kp at 1 h [33]: 1
- half-life [34]: 3.7 h
